Data set [1] deals with keratinocyte migration (MMP-1 dependent). The following applies: collagen type I matrix in vitro; cited from earlier work.

For `CNC(=O)[C@H](Cc1ccc(OC)cc1)NC(=O)[C@@H](CC(=O)NO)CC(C)C` [SC44463], the “inhibition of keratinocyte migration” value in data set [1] is listed as “completely inhibited”.

Usually melting point stands for the temperature, or range, at which the solid turns liquid. The compound `O=C(O)CNC(=O)c1noc([C@H](CCCC2CCCCC2)CC(=O)NO)n1` [Example 11, 2-{[(5-{(1R)-4-Cyclohexyl-1-[2-(hydroxyamino)-2-oxoethyl]butyl}-1,2,4-oxadiazol-3-yl)carbonyl]amino}acetic Acid] returned a melting point of 141 to 142 °C.

`O=C(C[C@@H](CCCC1CCCCC1)c1nc(C(=O)N2CC(N3CCOCC3)C2)no1)NO` [Example 14, (3R)-6-Cyclohexyl-N-hydroxy-3-(3-{[3-(4-morpholinyl)-1-azetidinyl]carbonyl}-1,2,4-oxadiazol-5-yl)hexanamide] registered a melting point of 52 to 63 °C.

These data come from patent US6897306B2, “3-heterocyclylpropanohydroxamic acids” (Pfizer Products, Inc., priority 1999, dated 2005).
